Laboratory results from ChEMBL document CHEMBL5291721, “A preclinical secondary pharmacology resource illuminates target-adverse drug reaction associations of marketed drugs” (Nat Commun, 2023).

Tests used:
Adenosine receptor A3 = target: T1, Adenosine receptor A3 (Homo sapiens, UniProt P0DMS8)
T1 sequence (P0DMS8 whole entry): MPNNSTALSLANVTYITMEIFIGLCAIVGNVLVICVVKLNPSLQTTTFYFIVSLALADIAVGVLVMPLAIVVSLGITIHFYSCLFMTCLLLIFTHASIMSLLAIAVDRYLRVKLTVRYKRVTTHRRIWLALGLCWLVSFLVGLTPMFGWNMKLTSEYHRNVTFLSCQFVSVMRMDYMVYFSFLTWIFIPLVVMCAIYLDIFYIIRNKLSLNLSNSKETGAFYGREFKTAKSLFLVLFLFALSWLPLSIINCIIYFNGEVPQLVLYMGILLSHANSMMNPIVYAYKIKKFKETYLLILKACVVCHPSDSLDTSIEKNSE

Vasopressin V2 receptor = Vasopressin V2 receptor (Homo sapiens, UniProt P30518)
Vasopressin V2 receptor, sequence (P30518 whole entry): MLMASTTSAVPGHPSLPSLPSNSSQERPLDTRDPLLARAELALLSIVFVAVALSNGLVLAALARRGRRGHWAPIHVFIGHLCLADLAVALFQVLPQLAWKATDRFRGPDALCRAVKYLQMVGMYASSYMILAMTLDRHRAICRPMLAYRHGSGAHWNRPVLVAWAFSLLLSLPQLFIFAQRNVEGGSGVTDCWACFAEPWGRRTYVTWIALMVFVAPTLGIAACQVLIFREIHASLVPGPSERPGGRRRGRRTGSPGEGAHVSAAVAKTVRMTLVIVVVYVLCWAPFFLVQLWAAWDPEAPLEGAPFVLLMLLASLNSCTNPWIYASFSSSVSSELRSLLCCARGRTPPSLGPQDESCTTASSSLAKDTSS

[1] = target: T2, Muscarinic acetylcholine receptor M2 (Homo sapiens, UniProt P08172); assay type: functional, cell-based
T2 sequence (P08172 whole entry): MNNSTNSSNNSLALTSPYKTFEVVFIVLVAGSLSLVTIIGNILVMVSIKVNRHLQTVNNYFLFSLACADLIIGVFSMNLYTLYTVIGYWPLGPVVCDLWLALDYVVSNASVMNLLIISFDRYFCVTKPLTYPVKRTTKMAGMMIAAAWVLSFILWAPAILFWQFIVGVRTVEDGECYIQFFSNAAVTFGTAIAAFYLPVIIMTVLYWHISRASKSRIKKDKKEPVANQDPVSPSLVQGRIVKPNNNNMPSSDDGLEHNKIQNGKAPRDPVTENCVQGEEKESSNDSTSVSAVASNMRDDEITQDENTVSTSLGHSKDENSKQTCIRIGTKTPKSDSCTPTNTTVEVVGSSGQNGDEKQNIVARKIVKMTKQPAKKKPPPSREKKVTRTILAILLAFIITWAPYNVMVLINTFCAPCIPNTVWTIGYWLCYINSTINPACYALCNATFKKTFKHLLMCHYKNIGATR

Cannabinoid receptor 1 = Cannabinoid receptor 1 (Homo sapiens, UniProt P21554); assay type: functional, cell-based
Cannabinoid receptor 1, sequence (P21554 whole entry): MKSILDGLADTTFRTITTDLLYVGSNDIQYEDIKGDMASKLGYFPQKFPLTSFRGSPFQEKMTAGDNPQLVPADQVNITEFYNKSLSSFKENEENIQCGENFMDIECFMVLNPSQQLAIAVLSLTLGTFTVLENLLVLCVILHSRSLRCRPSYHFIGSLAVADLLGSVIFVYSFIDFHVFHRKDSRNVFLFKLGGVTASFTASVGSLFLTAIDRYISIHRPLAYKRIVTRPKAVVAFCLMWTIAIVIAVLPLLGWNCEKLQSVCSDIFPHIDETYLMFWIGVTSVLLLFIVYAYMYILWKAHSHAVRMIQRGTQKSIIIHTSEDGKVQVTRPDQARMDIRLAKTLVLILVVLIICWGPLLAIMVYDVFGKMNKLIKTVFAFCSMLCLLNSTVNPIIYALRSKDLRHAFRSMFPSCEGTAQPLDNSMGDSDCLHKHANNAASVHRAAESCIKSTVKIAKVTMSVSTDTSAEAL

[2] = target: Gamma-aminobutyric acid receptor subunit alpha-1 (Rattus norvegicus, UniProt P62813); assay type: functional
Gamma-aminobutyric acid receptor subunit alpha-1, sequence (P62813 whole entry): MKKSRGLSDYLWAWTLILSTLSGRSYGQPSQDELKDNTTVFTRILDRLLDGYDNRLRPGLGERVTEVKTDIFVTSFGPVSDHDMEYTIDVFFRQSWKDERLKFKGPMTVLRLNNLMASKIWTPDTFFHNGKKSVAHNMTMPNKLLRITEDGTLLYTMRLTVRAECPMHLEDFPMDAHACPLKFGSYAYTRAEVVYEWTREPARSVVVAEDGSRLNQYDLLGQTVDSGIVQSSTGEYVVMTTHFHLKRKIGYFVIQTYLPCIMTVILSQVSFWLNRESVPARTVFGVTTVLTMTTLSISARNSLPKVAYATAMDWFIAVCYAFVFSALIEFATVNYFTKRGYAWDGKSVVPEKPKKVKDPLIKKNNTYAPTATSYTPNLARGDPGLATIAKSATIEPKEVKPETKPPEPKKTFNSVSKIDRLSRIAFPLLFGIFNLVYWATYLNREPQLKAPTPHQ

[3] = target: Kappa-type opioid receptor (Homo sapiens, UniProt P41145)
Kappa-type opioid receptor, sequence (P41145 whole entry): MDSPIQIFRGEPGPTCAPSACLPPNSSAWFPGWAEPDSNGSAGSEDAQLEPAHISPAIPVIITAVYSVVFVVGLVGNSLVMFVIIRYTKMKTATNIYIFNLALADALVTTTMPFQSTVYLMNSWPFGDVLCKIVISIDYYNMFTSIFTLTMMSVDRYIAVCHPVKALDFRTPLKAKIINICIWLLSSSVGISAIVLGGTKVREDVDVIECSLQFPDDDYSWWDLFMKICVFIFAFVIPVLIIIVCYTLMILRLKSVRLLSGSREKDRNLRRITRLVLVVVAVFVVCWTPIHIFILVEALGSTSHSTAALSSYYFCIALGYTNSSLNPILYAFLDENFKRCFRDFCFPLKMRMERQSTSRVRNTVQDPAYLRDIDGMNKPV

Progesterone receptor = target: T3, Progesterone receptor (Homo sapiens, UniProt P06401); assay type: functional
T3 sequence (P06401 whole entry): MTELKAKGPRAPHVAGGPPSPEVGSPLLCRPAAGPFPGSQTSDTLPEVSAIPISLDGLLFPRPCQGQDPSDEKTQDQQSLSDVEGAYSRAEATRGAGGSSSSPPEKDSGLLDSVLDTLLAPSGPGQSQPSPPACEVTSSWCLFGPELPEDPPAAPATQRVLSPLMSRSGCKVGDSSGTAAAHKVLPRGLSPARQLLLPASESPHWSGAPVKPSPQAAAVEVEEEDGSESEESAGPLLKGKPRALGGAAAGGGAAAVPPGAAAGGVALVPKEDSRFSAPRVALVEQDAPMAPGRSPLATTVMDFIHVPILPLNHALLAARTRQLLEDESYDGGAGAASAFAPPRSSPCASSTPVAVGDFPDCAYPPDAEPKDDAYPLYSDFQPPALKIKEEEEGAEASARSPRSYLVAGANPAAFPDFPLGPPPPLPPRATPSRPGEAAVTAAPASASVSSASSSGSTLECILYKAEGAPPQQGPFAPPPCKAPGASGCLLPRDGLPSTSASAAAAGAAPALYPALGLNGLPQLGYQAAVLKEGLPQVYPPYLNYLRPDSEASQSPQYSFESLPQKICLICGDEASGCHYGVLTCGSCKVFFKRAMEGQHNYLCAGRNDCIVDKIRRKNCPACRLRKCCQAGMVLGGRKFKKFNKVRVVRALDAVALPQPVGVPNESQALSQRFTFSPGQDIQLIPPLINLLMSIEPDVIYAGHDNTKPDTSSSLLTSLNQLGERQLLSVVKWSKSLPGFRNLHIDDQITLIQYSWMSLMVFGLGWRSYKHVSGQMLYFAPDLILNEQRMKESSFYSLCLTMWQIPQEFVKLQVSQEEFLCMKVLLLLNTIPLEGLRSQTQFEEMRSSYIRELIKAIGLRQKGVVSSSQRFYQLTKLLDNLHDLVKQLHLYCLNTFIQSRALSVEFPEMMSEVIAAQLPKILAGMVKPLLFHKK

[4] = target: T4, Amine oxidase [flavin-containing] A (Homo sapiens, UniProt P21397); assay type: functional
T4 sequence (P21397 whole entry): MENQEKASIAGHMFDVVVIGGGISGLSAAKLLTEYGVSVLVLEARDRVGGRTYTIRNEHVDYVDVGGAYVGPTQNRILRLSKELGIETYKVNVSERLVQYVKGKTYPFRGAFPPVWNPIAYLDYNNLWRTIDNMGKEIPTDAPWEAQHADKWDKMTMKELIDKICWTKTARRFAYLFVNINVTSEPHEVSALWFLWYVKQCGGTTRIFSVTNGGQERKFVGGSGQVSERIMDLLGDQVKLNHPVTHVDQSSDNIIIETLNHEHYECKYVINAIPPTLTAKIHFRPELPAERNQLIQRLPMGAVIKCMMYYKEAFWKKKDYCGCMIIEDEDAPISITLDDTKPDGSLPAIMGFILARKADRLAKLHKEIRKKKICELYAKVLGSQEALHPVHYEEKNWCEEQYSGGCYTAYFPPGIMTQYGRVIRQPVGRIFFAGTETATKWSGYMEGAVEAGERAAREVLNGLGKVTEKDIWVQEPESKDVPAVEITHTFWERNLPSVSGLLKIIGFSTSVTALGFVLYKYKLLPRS

D(3) dopamine receptor = D(3) dopamine receptor (Homo sapiens, UniProt P35462)
D(3) dopamine receptor, sequence (P35462 whole entry): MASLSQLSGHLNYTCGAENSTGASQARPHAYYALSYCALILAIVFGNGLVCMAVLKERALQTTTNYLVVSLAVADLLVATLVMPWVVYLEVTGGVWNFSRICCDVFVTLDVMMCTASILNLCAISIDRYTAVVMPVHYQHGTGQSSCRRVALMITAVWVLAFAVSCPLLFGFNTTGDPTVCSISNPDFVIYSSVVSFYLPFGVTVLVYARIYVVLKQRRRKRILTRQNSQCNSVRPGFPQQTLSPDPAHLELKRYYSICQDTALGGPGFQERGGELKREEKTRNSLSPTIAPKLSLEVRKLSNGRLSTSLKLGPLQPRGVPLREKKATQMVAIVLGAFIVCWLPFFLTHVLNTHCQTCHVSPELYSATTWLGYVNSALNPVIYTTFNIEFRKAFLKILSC
Also: assay procedure not described here.

Compound	AC50 (Adenosine receptor A3) [µM]	AC50 (Vasopressin V2 receptor) [µM]	AC50 [1] [µM]	AC50 (Cannabinoid receptor 1) [µM]	AC50 [2] [µM]	AC50 [3] [µM]	AC50 (Progesterone receptor) [µM]	AC50 [4] [µM]	AC50 (D(3) dopamine receptor) [µM]
CN1C(=O)OC(C)(C)C1=O [TRIMETHADIONE]	> 10	> 10	> 10	> 30	> 10	> 10	> 10	> 10	> 30
CO/N=C(\C(=O)N[C@@H]1C(=O)N2C(C(=O)O)=C(CSc3nnnn3C)CS[C@H]12)c1csc(N)n1 [CEFMENOXIME]	> 30	> 30	> 30	> 30	–	–	1.8	> 30	–
CC=CC(=O)N(CC)c1ccccc1C	> 10	> 10	> 10	> 30	> 10	> 10	> 10	> 10	> 30
Cn1c(=O)c2c(ncn2CC2OCCO2)n(C)c1=O [DOXOFYLLINE]	> 30	> 10	> 30	> 30	> 30	> 30	> 30	> 30	> 30
CNC(C)CCC=C(C)C (configuration not stated) [ISOMETHEPTENE]	> 30	> 30	–	–	–	–	> 30	–	–
COc1ccccc1N1CCN(CCCNc2cc(=O)n(C)c(=O)n2C)CC1	> 30	> 30	> 30	> 30	> 30	> 30	> 30	> 30	1.4
CCOC(=O)OC(C)OC1=C(C(=O)Nc2ccccn2)N(C)S(=O)(=O)c2ccccc21 (configuration not stated) [AMPIROXICAM]	> 30	> 30	> 30	> 30	> 30	> 30	> 30	> 30	> 30
O=C(O)C[C@H](O)C[C@H](O)/C=C/c1c(C2CC2)nc2ccccc2c1-c1ccc(F)cc1 [PITAVASTATIN]	> 30	> 10	> 30	–	> 10	> 10	> 30	> 30	> 30
O=C(NCCN1CCOCC1)c1ccc(Cl)cc1 [MOCLOBEMIDE]	> 10	> 10	> 10	–	> 10	> 10	> 10	–	> 30
NCC[C@H](O)C(=O)N[C@@H]1C[C@H](N)[C@@H](O[C@H]2O[C@H](CN)[C@@H](O)[C@H](O)[C@H]2O)[C@H](O)[C@H]1O[C@H]1O[C@H](CO)[C@@H](O)[C@H](N)[C@H]1O [AMIKACIN]	> 10	> 10	> 10	–	> 10	> 10	> 10	> 10	> 30
Nc1nc(N)nc(-c2cc(Cl)ccc2Cl)n1 [IRSOGLADINE]	> 30	> 30	> 30	> 30	–	–	> 30	> 30	–
CC(=O)O[C@H]1C[C@@H]2CC[C@@H]3[C@H](CC[C@@]4(C)[C@H]3C[C@H]([N+]3(C)CCCCC3)[C@@H]4OC(C)=O)[C@@]2(C)C[C@@H]1N1CCCCC1 [VECURONIUM]	> 30	> 30	> 30	> 30	> 30	> 30	> 30	> 30	> 30
CCN(CC)C(=O)N[C@H]1C[C@@H]2c3cccc4[nH]cc(c34)C[C@H]2N(C)C1 [TERGURIDE]	> 30	> 30	> 30	> 30	> 30	> 30	> 30	> 30	0.006
C[C@](N)(Cc1ccc(O)c(O)c1)C(=O)O [METHYLDOPA]	> 30	> 10	> 10	–	> 10	> 10	> 30	> 10	> 30
C#C[C@]1(O)CC[C@H]2[C@@H]3CCC4=Cc5oncc5C[C@]4(C)[C@H]3CC[C@@]21C [DANAZOL]	> 30	> 10	–	–	> 10	> 10	–	> 10	> 30
Cc1ccc(S(=O)(=O)NC(=O)NN2CC3CCCC3C2)cc1 (configuration not stated) [GLICLAZIDE]	> 10	> 10	> 10	–	> 10	> 10	> 10	> 30	> 30
C[C@]12CC[C@H]3[C@@H](CCC4=CC(=O)CC[C@@]43C)[C@@H]1CC[C@@H]2O [TESTOSTERONE]	> 10	> 10	> 10	–	> 10	> 10	–	> 10	> 30
CNS(=O)(=O)Cc1ccc2[nH]cc(CCN(C)C)c2c1	> 30	> 30	> 30	> 30	> 30	> 30	–	> 30	> 30
CN1CCN(CC/C=C2/c3ccccc3Sc3ccc(S(=O)(=O)N(C)C)cc32)CC1 [THIOTHIXENE]	> 30	20	> 10	> 30	> 10	11.6	–	> 10	0.0139
CC(C)Cn1cnc2c(N)nc3ccccc3c21 [IMIQUIMOD]	> 30	> 10	> 10	–	> 10	> 10	> 10	> 10	> 30
CCCN(CCC)C(=O)C(CCC(=O)O)NC(=O)c1ccccc1 (configuration not stated) [PROGLUMIDE]	> 30	> 30	> 10	–	> 10	> 10	> 30	> 30	> 30
